From patent US11667616B2, “Oral GSNOR inhibitor and pharmaceutical use thereof” (NANJING MEDICAL UNIVERSITY, priority 2020, dated 2023) come the findings set out here.

Series [1] concerns diabetic C57BL/6J mice with lateral limb ischemia. Put plainly: Streptozotocin diabetes + lateral limb ischemia model. Type of series: in vivo. The protocol: To generate diabetes model, mice at week 8 were intraperitoneally injected with streptozotocin (60 mg/kg/day) for consecutive 5 days, then the modeling was identified as a success if the blood glucose was measured to be greater than 16.6 mmol/L at week 10. […] The gastrocnemius muscles of the ischemic lateral limbs of the mice were isolated for frozen section, and immunofluorescence (platelet-endothelial cell adhesion molecule, CD31) was used to detect the angiogenesis (FIG. 6B); and the semimembranosus muscles were isolated for frozen section, and immunofluorescence (α-smooth muscle actin, α-SMA) was used to detect the arteriogenesis (FIG. 6B).

Series [2] is described as follows: Pharmacokinetic study, plasma concentration by LC-MS/MS. It counts as in vivo, ICR mice. As to conditions: ICR, mouse; for half-life: read-out: drug half-life period (converted). The text has this:
Then, the plasma concentration was detected by LC-MS/MS at hour 0.083, 0.25, 0.5, 1, 2, 4, 8 and 24 respectively (FIG. 5).

Another series concerns the target T1, GSNOR (Homo sapiens, UniProt P11766).
T1 construct: the cell lysate supernatants were treated with a substrate GSNO and a coenzyme NADH; endogenous in cells; host or cells: HUVEC (human umbilical vein endothelial cells)
Put plainly: GSNOR activity in lysate of treated HUVECs (NADH consumption at 340 nm). The note with it: for activities in in-vitro studies: relative to N6022. Type of series: cell-based. The text has this:
GSNOR plays a crucial regulatory role in asthma and cystic fibrosis.

For series [3], the system named is HUVECs. Put plainly: Endothelial cell sphere sprouting under high glucose. Type of series: cell-based, Human. The note with it: high glucose 30 mM, 10 nM, 24 h. The text has this:
(§1) FIG. 3A, FIG. 3B and FIG. 3C show study of the in-vitro activity of the subject compound 1 against diabetic vascular complications.

The test system of series [4] is human aortic smooth muscle cells (HASMCs). Put plainly: Contractile/synthetic marker expression in angiotensin II-treated smooth muscle cells. Type of series: cell-based. As to conditions: angiotensin II 1 μM, 10 nM, 24 hours. The text has this: Then, cellular RNA were extracted to detect contractile/synthetic markers of smooth muscle cells.
For series [5], the system named is HUVECs. Kind of series: Endothelial cell permeability under high glucose. It counts as cell-based, Human. The note with it: high glucose 30 mM, 10 nM, 24 h.
Description: as §1

Series [6] deals with C57BL/6J mice with β-aminopropionitrile-induced aortic aneurysm/dissection. Put plainly: β-aminopropionitrile-induced aortic aneurysm/dissection model. It counts as in vivo.
Series [7] deals with HUVECs. Put plainly: Endothelial cell tube formation under high glucose. Type of series: cell-based, Human. The note with it: high glucose 30 mM, 10 nM, 24 h.
Description: It is known that in the diabetic vascular complications, decreased angiogenesis and increased vascular endothelial permeability are among the risk factors causing local edema, ischemia followed by ulcer and amputation.
as §1

The mark [8] stands for this setting: gavage 6 mg/kg/day vs N6022 iv 1 mg/kg/day, N6022-1 gavage 5.6 mg/kg/day, N6022-2 gavage 5.3 mg/kg/day.
[9] abbreviates: gavage 6 mg/kg/day, β-aminopropionitrile drinking water 28 days.

As a reminder, the bioavailability is dose-corrected exposure relative to a reference, in per cent. Read a low bioavailability as little systemic uptake. In general, half-life refers to how long it takes for the measured level to halve.

Molecules are shown by their SMILES.

T1 sequence (P11766 whole entry): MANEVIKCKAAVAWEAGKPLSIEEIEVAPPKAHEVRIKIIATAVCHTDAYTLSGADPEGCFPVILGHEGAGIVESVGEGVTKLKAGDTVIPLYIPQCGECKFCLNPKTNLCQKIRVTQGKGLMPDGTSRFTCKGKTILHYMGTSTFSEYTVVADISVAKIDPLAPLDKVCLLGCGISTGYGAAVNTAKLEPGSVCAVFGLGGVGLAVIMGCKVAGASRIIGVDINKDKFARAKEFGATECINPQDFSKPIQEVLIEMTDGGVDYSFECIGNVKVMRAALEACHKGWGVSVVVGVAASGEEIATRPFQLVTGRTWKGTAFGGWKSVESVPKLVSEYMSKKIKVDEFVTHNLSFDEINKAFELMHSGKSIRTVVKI

Consider `Cc1cc(C(N)=O)ccc1-n1c(CCC(=O)N2CCSC2=O)ccc1-c1ccc(-n2ccnc2)cc1` [subject compound 1, s4-(2-(4-(1H-imidazol-1-yl)phenyl)-5-(3-oxo-3-(2-oxothiazolidin-3-yl)propyl)-1H-pyrrol-1-yl)-3-methylbenzamide], for which the “angiogenesis of the ischemic lateral limbs of the diabetic mice (CD31, α-SMA)” value in series [1] (gavage 6 mg/kg/day after operation) was “obviously promote”. Also, in series [1] (setting [8]), the “effect on diabetic limb ischemia compared with controls” value was “equivalent effect to the group intravenously injected with N6022”. In series [1] (gavage 6 mg/kg/day, day 0, 7 and 14), the “blood flow recovery of the lateral limbs (laser speckle imaging)” value is given as “restore blood flow”. The molecule also displayed a bioavailability in series [2] (po) of 60.1 ± 7.91%. In series [2], the half-life is 1.62 ± 0.81 h. Moreover, the “inhibitory effect on the GSNOR activity” value at GSNOR (10 nM, 24 hours, HUVECs, lysate + GSNO + NADH) is on record as “equivalent to N6022”. Further, on GSNOR, the “activities in in-vitro studies” value is “good activity in vitro”. In addition, the “sprouting ability of the endothelial cells” value in the series on HUVECs [3] is given as “improve sprouting ability”. Also, in series [4], the “decrease in the expression of the contractile markers (actin α2, calmodulin 1, transgelin) due to angiotensin II” value was “obviously inhibit” and the “increase in the expression of the synthetic markers (osteopontin, Kruppel-like factor 4, Kruppel-like factor 5) due to angiotensin II” value is listed as “obviously inhibit”. Further, the “permeability of the endothelial cells” value in the series on HUVECs [5] was “modify the permeability”. Also, the “effect on aortic aneurysm/dissection compared with controls” value in series [6] (setting [8]) is “equivalent effect to the group intravenously injected with N6022”. In series [6] (setting [9]), the “expansion of the aortic diameter” value is given as “inhibited” and the “mortality rate of the mice” value is “inhibited”. The “angiogenesis ability of endothelial cells (tube formation)” value in the series on HUVECs [7] is reported as “obviously improve”.

Turning to `Cc1cc(C(N)=O)ccc1-n1c(CCC(N)=O)ccc1-c1ccc(-n2ccnc2)cc1` [N6022-1], the “activities in in-vitro studies” value at GSNOR is listed as “significantly reduced”.

Consider `Cc1cc(C(N)=O)ccc1-n1c(CCC(=O)O)ccc1-c1ccc(-n2ccnc2)cc1` [N6022, 3-(5-(4-(1H-imidazol-1-yl)phenyl)-1-(4-carbamoyl-2-methylphenyl)-1H-pyrrol-2-yl) propanoic acid, reference compound], for which the half-life in series [2] was 0.76 ± 0.15 h. Further, in series [4], the “decrease in the expression of the contractile markers (actin α2, calmodulin 1, transgelin) due to angiotensin II” value is reported as “obviously inhibit” and the “increase in the expression of the synthetic markers (osteopontin, Kruppel-like factor 4, Kruppel-like factor 5) due to angiotensin II” value is listed as “obviously inhibit”. In addition, the “angiogenesis ability of endothelial cells (tube formation)” value in the series on HUVECs [7] was “obviously improve”.

With `CCOC(=O)CCc1ccc(-c2ccc(-n3ccnc3)cc2)n1-c1ccc(C(N)=O)cc1C` [N6022-2], the “activities in in-vitro studies” value on GSNOR was “significantly reduced”.
